US20260199231A1, “FLUTICASONE AND VILANTEROL FORMULATION AND INHALER” (KINDEVA DRUG DELIVERY L.P., priority 2018, published 2026)

What was measured:
[1] = Delivered dose study (start of unit life, unit spray collection apparatus, HPLC assay); type: physicochemical; settings: Example 1 MDI: 0.1744% fluticasone furoate, 0.0698% vilanterol trifenatate, 99.7558% HFA-152a; coated 63 microliter valve; 28.3 L/min
Description: The start of unit life delivered dose was determined using standard unit spray collection apparatus (USCA) fitted with a filter. For each determination, an MDI was attached to the USCA using a coupler and actuated a single time. Immediately prior to attachment, the MDI was vigorously shaken. Prior to collection of the test sample, the MDI was primed by actuating four times. Prior to each priming shot the MDI was vigorously shaken. The flow rate through the equipment was regulated to 28.3 L/min+/−0.5 L/min. The test sample deposited in the USCA was collected by rinsing with a known volume of collection solvent. The recovered samples were then analyzed for sample content using an HPLC assay with reference to a known standard. An HPLC instrument with a UV detector (220 nm at 0 minutes, 240 nm at 5 minutes) and a symmetry shield RP18, 150 mm×4.6 mm (3.5 μm) column (temperature 25° C.) was used. The mobile phase was 10 mM SDS (sodium dodecyl sulphate), 60:40 (v/v) acetetonitrile:50 mM NH4OAc (ammonium acetate), pH 5.50. The injection volume was 50 μl and the flow rate was 1.0 mL/min.

[2] = Next Generation Impactor (NGI) studies, aerodynamic particle size distribution emitted from MDI; type: physicochemical; settings: HFA-152a; for FPM (fine particle mass, particle size less than 5 micrometers, per actuation) / ISM (impactor sized mass, Cups 2-7, MOC and filter, per actuation) / MMAD (mass median aerodynamic diameter) / Throat hold up (throat assembly content divided by total ex-actuator content): Example 1 MDI: 0.1744% FF, 0.0698% vilanterol trifenatate, mean of three MDIs; for FPM (fine particle mass, particle size less than 5 micrometers, per actuation) / ISM (impactor sized mass, Cups 2-7, MOC and filter, per actuation) / MMAD (mass median aerodynamic diameter): 30 L/minute; for Throat hold up (throat assembly content divided by total ex-actuator content): Emmace anatomical throat
Description: The aerodynamic particle size distribution emitted from each MDI was evaluated using a Next Generation Impactor Instrument (MSP Corporation, Shoreview, MN). For each test, an MDI was attached to the throat component (Emmace anatomical throat, Emmace Consulting, Lund, Sweden) of the NGI instrument and actuated 6 times into the instrument. Prior to each actuation the MDI was vigorously shaken. Immediately prior to attachment, the MDI was primed by actuating 4 times. Prior to each priming shot the MDI was vigorously shaken. The flow rate through the instrument during testing was regulated at 30 L/minute. The test sample (fluticasone furoate and vilanterol trifenatate) deposited on the valve stem, actuator, throat assembly (Emmace anatomical throat), individual uncoated collection cups 1-7, micro-orifice collector (MOC), and final filter component was collected by rinsing each individual component with a known volume of collection solvent. The recovered samples were then analyzed for sample content using an HPLC assay with reference to a known standard. An HPLC instrument with a UV detector (220 nm at 0 minutes, 240 nm at 5 minutes) and a symmetry shield RP-18, 4.6-150 mm column (25° C. column temp) was used. The mobile phase was 10 mM SDS, 60:40 (v/v) acetonitrile:50 mM NH4OAc, pH 5.5). The injection volume was 50 microliters and the flow rate was 1.0 mL/min.
Throat hold up was determined as the ratio of the sample content from the throat assembly divided by the total ex-actuator content.
Fine particle mass (FPM) was calculated using CITDAS (Copley Inhaler Testing Data Analysis Software, from Copley Scientific, Nottingham, UK) as the sum of sample content with a particle size less than 5 micrometers (um), reported as micrograms per actuation (mcg/act).
Median mass aerodynamic diameter (MMAD) was calculated using CITDAS (Copley Inhaler Testing Data Analysis Software).
Impactor sized mass (ISM) was determined as the sum of the sample content determined for Cups 2-7, the MOC and the filter, reported as micrograms per actuation (mcg/act).

[3] = Example 2 MDI: 0.8791 wt. % fluticasone furoate, 0.1758 wt. % vilanterol trifenatate, coated 25 microliter valve
[4] = Example 3 MDI: 0.4396 wt. % fluticasone furoate, 0.0879 wt. % vilanterol trifenatate, 50 microliter valve
[5] = Example 4 MDI: 0.3489 wt. % fluticasone furoate, 0.0698 wt. % vilanterol trifenatate, 63 microliter valve
[6] = Example 5 MDI: 0.2198 wt. % fluticasone furoate, 0.0440 wt. % vilanterol trifenatate, uncoated 100 microliter valve
[7] = Example 6 MDI: 0.4396 wt. % fluticasone furoate, 0.1758 wt. % vilanterol trifenatate, coated 25 microliter valve
[8] = Example 7 MDI: 0.2198 wt. % fluticasone furoate, 0.0879 wt. % vilanterol trifenatate, 50 microliter valve
[9] = Example 8 MDI: 0.1744 wt. % fluticasone furoate, 0.0698 wt. % vilanterol trifenatate, 63 microliter valve
[10] = Example 9 MDI: 0.1099 wt. % fluticasone furoate, 0.0440 wt. % vilanterol trifenatate, uncoated 100 microliter valve

Row | Structure (SMILES) | Start of life dose content uniformity (delivered dose) [1] [mcg/actuation] | FPM (fine particle mass, particle size less than 5 micrometers, per actuation) ([2]; 63 microliter valve) [µg] | ISM (impactor sized mass, Cups 2-7, MOC and filter, per actuation) ([2]; 63 microliter valve) [µg] | MMAD (mass median aerodynamic diameter) ([2]; 63 microliter valve) [um] | Throat hold up (throat assembly content divided by total ex-actuator content) ([2]; 63 microliter valve) [%] | calculated FPM [2, 3] [micrograms/actuation] | calculated MMAD [2, 3] [micrometers] | calculated FPM [2, 4] [micrograms/actuation] | calculated MMAD [2, 4] [micrometers] | calculated FPM [2, 5] [micrograms/actuation] | calculated MMAD [2, 5] [micrometers] | calculated FPM [2, 6] [micrograms/actuation] | calculated MMAD [2, 6] [micrometers] | calculated FPM [2, 7] [micrograms/actuation] | calculated MMAD [2, 7] [micrometers] | calculated FPM [2, 8] [micrograms/actuation] | calculated MMAD [2, 8] [micrometers] | calculated FPM [2, 9] [micrograms/actuation] | calculated MMAD [2, 9] [micrometers] | calculated FPM [2, 10] [micrograms/actuation] | also measured
1 | C[C@@H]1C[C@H]2[C@@H]3C[C@H](F)C4=CC(=O)C=C[C@]4(C)[C@@]3(F)[C@@H](O)C[C@]2(C)[C@@]1(OC(=O)c1ccco1)C(=O)SCF [FF, fluticasone furoate] | 90.9 | 21.6 | 29.7 | 3.3 | 70.8 | 104.9 | 3.5 | 69.3 | 3.4 | 55.9 | 3.3 | 45.2 | 3.3 | 41.0 | 3.1 | 26.3 | 2.9 | 23.8 | 3.0 | 19.3 | calculated MMAD [2, 10]: 3.2 micrometers
2 | OCc1cc([C@@H](O)CNCCCCCCOCCOCc2c(Cl)cccc2Cl)ccc1O [V, vilanterol] | 23.1 | 9.2 | 10.1 | 1.9 | 61.4 | 13.6 | 2.6 | 8.8 | 2.7 | 6.7 | 2.3 | 5.5 | 2.5 | 11.4 | 2.1 | 7.7 | 2.2 | 5.9 | 2.3 | 4.2 | calculated MMAD [2, 10]: 2.6 micrometers
